Measured values taken from PubChem BioAssay AID2060496 (Molecular Pharmacology Branch, DTP, NCI, 2025).

System: 276233-004-R-J1-PDC complex spheroid viability
Assay: Anticancer human tumor 276233-004-R-J1-PDC patient-derived colon adenocarcinoma cell line growth inhibition [GQUAD]
Settings: for IC50: curve of first compound; for viability, T/C: stronger effect = lower value
Procedure, shortened: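 Tumor cells were grown as complex spheroids with HUVEC endothelial cells and mesenchymal stem cells as stroma. G-quadruplex stabilizers were combined with targeted agents over half-log dilutions from near the clinical Cmax, or from 10 microM.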

[1] = second compound 0.0316 µM, first compound 0.0316 µM
[2] = second compound 0.0316 µM, first compound 0.1 µM
[3] = second compound 0.0316 µM, first compound 0.316 µM
[4] = second compound 0.0316 µM, first compound 1 µM
[5] = second compound 0.0316 µM, first compound 3.16 µM
[6] = second compound 0.0316 µM, first compound 10 µM
[7] = second compound 0.1 µM, first compound 0.0316 µM
[8] = second compound 0.1 µM, first compound 0.1 µM
[9] = second compound 0.1 µM, first compound 0.316 µM
[10] = second compound 0.1 µM, first compound 1 µM
[11] = second compound 0.1 µM, first compound 3.16 µM
[12] = second compound 0.1 µM, first compound 10 µM
[13] = second compound 0.316 µM, first compound 0.0316 µM
[14] = second compound 0.316 µM, first compound 0.1 µM
[15] = second compound 0.316 µM, first compound 0.316 µM
[16] = second compound 0.316 µM, first compound 1 µM
[17] = second compound 0.316 µM, first compound 3.16 µM
[18] = second compound 0.316 µM, first compound 10 µM
[19] = second compound 1 µM, first compound 0.0316 µM
[20] = second compound 1 µM, first compound 0.1 µM
[21] = second compound 1 µM, first compound 0.316 µM
[22] = second compound 1 µM, first compound 1 µM
[23] = second compound 1 µM, first compound 3.16 µM
[24] = second compound 1 µM, first compound 10 µM
[25] = second compound 3.16 µM, first compound 0.0316 µM
[26] = second compound 3.16 µM, first compound 0.1 µM
[27] = second compound 3.16 µM, first compound 0.316 µM
[28] = second compound 3.16 µM, first compound 1 µM
[29] = second compound 3.16 µM, first compound 3.16 µM
[30] = second compound 3.16 µM, first compound 10 µM
[31] = second compound 10 µM, first compound 0.0316 µM
[32] = second compound 10 µM, first compound 0.1 µM
[33] = second compound 10 µM, first compound 0.316 µM
[34] = second compound 10 µM, first compound 1 µM
[35] = second compound 10 µM, first compound 3.16 µM
[36] = second compound 10 µM, first compound 10 µM
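Further: spheroids exposed to drugs for seven days.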
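Wherever viability, T/C is given: 100% = DMSO vehicle control viability.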

Molecule `CC(=O)O[C@H]1C(=O)[C@@]2(C)[C@H]([C@H](OC(=O)c3ccccc3)[C@]3(O)C[C@H](OC(=O)[C@H](O)[C@@H](NC(=O)c4ccccc4)c4ccccc4)C(C)=C1C3(C)C)[C@]1(OC(C)=O)CO[C@@H]1C[C@@H]2O` + CN(C)c1ccc(Nc2c3ccc(NC(=O)CCN4CCCC4)cc3nc3cc(NC(=O)CCN4CCCC4)ccc23)cc1 has an IC50 (second compound 0.0316 µM) greater than 10 µM, an IC50 (second compound 0.1 µM) greater than 10 µM and an IC50 (second compound 0.316 µM) greater than 10 µM. For the same molecule, the IC50 (second compound 1 µM) was 4.25 µM, the IC50 (second compound 3.16 µM) was less than 0.0316 µM and the IC50 (second compound 10 µM) was less than 0.0316 µM. The viability, T/C [1] was 86.5%, the viability, T/C [2] was 98.3% and the viability, T/C [3] was 87.9%. It also gave a viability, T/C [4] of 85.2%, a viability, T/C [5] of 88% and a viability, T/C [6] of 80.6%. It also gave a viability, T/C [7] of 70.4%, a viability, T/C [8] of 82.2% and a viability, T/C [9] of 65.8%. For the same molecule, the viability, T/C [10] was 79.7%, the viability, T/C [11] was 69.8% and the viability, T/C [12] was 69.8%. It also gave a viability, T/C [13] of 67.5%, a viability, T/C [14] of 65.5% and a viability, T/C [15] of 57.4%. For the same molecule, the viability, T/C [16] was 54.1%, the viability, T/C [17] was 67.8% and the viability, T/C [18] was 54.9%. For the same molecule, the viability, T/C [19] was 52.7%, the viability, T/C [20] was 52.6% and the viability, T/C [21] was 57%. The viability, T/C [22] was 55.9%, the viability, T/C [23] was 54.4% and the viability, T/C [24] was 41.7%. For the same molecule, the viability, T/C [25] was 44.4%, the viability, T/C [26] was 41.9% and the viability, T/C [27] was 37.2%. The viability, T/C [28] was 49.5%, the viability, T/C [29] was 50% and the viability, T/C [30] was 49.7%. It also gave a viability, T/C [31] of 36.8%, a viability, T/C [32] of 44.1% and a viability, T/C [33] of 43.7%. The viability, T/C [34] was 44.3%, the viability, T/C [35] was 51.9% and the viability, T/C [36] was 51.7%.

Molecule `CC(C)(O)C1CCC(Nc2ccc3ncc(-c4cccc(C(F)(F)F)c4)n3n2)CC1` (centres undefined) + CN(C)c1ccc(Nc2c3ccc(NC(=O)CCN4CCCC4)cc3nc3cc(NC(=O)CCN4CCCC4)ccc23)cc1 has an IC50 (second compound 0.0316 µM) greater than 10 µM, an IC50 (second compound 0.1 µM) of 2.55 µM and an IC50 (second compound 0.316 µM) greater than 10 µM. It also gave an IC50 (second compound 1 µM) of 1.06 µM, an IC50 (second compound 3.16 µM) of 0.101 µM and an IC50 (second compound 10 µM) of less than 0.0316 µM. The viability, T/C [1] was 90.4%, the viability, T/C [2] was 84.4% and the viability, T/C [3] was 55.8%. The viability, T/C [4] was 84%, the viability, T/C [5] was 48.6% and the viability, T/C [6] was 57%. The viability, T/C [7] was 82.6%, the viability, T/C [8] was 69.2% and the viability, T/C [9] was 62.7%. The viability, T/C [10] was 57.4%, the viability, T/C [11] was 45.2% and the viability, T/C [12] was 46%. It also gave a viability, T/C [13] of 55.9%, a viability, T/C [14] of 55.4% and a viability, T/C [15] of 50.2%. It also gave a viability, T/C [16] of 57.1%, a viability, T/C [17] of 55% and a viability, T/C [18] of 46.6%. For the same molecule, the viability, T/C [19] was 75%, the viability, T/C [20] was 56.3% and the viability, T/C [21] was 54.4%. For the same molecule, the viability, T/C [22] was 56.3%, the viability, T/C [23] was 50.2% and the viability, T/C [24] was 41%. For the same molecule, the viability, T/C [25] was 67.5%, the viability, T/C [26] was 45.4% and the viability, T/C [27] was 51.3%. The viability, T/C [28] was 39%, the viability, T/C [29] was 46.8% and the viability, T/C [30] was 34%. The viability, T/C [31] was 46.3%, the viability, T/C [32] was 43.4% and the viability, T/C [33] was 41.8%. The viability, T/C [34] was 35.5%, the viability, T/C [35] was 41% and the viability, T/C [36] was 22.4%.
